Patent US10434083B2, “Transmammary delivery of cyclooxygenase-2 inhibitors for analgesia in neonates” (Iowa State University Research Foundation, Inc., priority 2018, dated 2019)

Experiment: in vivo
Parameters: species or system swine
Conditions: for AUMC / AUMClast / AUCINF / AUC_Exp / AUC∞ extrpl / Lamda_HL / Lamda_Z / λZ / T1/2λZ: both; for Lamda_HL / Lamda_Z / λZ / T1/2λZ: swine
Method: Blood samples for firocoxib determination were collected from the sows and three piglets/litter (two male and one female piglet at each time point) at 0, 2, 4, 6, 8, 12, 24, 48, 72, 96, and 120 h post-drug injection to the sow. The blood sample from each sow (8 mL/sample) was collected via the left or right jugular vein using a 25.4-mm, 16-gauge hypodermic needle (Air-Tite Products, Virginia Beach, Va.) attached to a 12-mL Luer-Lok syringe (TycoHealth Care, Mansfield, Mass.). During blood collection, a pig snare was used for manual restraint of each sow in her crate. The blood samples (2 mL/sample) from the piglets were collected from the left or right cranial vena cava using a 3.8-cm, 20-gauge hypodermic needle (TycoHealth Care, Mansfield, Mass.) attached to a 3-mL syringe (TycoHealth Care, Mansfield, Mass.). Physical restraint of the piglet was achieved by placing the animal in a supine position during sample collection. Blood samples were transferred to 6-mL evacuated tubes that contained lithium heparin (Vacuette plasma tubes, Greiner Bio-One, Monroe, N.C.) that were stored on ice for up to 2 h before processing. The blood samples were centrifuged for 10 min at 1,500×g. The plasma was then removed, placed in cryovials, and frozen at −80° C. until analysis.
On Day 0, the pharmacokinetic portion of the study commenced. The test article was administered intramuscularly in the right neck to sows. Blood samples for Firocoxib determination were collected by jugular venipuncture from sows and 3 piglets/litter (2 male and one female at each timepoint) at 0, 2, 4, 6, 8, 12, 24, 48, 72, 96 and 120 hours after drug injection in the sow.
Plasma concentrations of firocoxib were determined using high-pressure liquid chromatography (Agilent 1100 Pump, Column Compartment and Autosampler, Agilent Technologies, Santa Clara, Calif., USA) with mass spectrometry detection (LTQ Ion Trap, Thermo Scientific, San Jose, Calif., USA). Briefly, frozen samples or standards were thawed at room temperature and rigorously vortexed once completely thawed. […] Plasma samples, plasma spikes, plasma quality control samples, and blanks (100 μL) were then protein-precipitated in 1.5-mL microcentrifuge tubes with 400 μL acetonitrile/0.1% formic acid. A d6-firocoxib internal standard was incorporated into the acetonitrile precipitating agent at a concentration of 200 ng/mL. The samples were vortexed for 5 seconds after addition of the acetonitrile and centrifuged for 20 min at 3,773×g to sediment the protein pellet. Following centrifugation, the supernatant was poured into cell culture tubes and evaporated to dryness in a Turbovap concentration evaporator at 48° C. The tube contents were reconstituted with 150 μL 25% acetonitrile and transferred to autosampler vials equipped with 300-μL glass inserts. The samples were centrifuged at 770×g before liquid chromatography-mass spectroscopy (LC-MS) analysis.
Twelve calibration spikes were prepared in blank porcine plasma in the concentration range of 1-5,000 ng/mL for the samples from the sows. The samples from the piglets were analyzed using a narrower range of calibration spikes of 1-500 ng/mL. A linear (1/X) fit was used for the piglet plasma samples and the narrower 1-500 ng/mL concentration range. A quadratic (1/X) fit was used for the sow plasma samples and the 1-5,000 ng/mL concentration range.
Plasma and tissue firocoxib concentrations were determined using high-pressure liquid chromatography (Agilent 1100 Pump, Column Compartment and Autosampler, Agilent Technologies, Santa Clara, Calif.) with mass spectrometry detection (LTQ Ion Trap, Thermo Scientific, San Jose, Calif.). A 25-μL injection volume was used for the LC-MS analysis. The mobile phases were A (0.1% formic acid in water) and B (0.1% formic acid in acetonitrile), at flow rates of 0.275 mL/min. […]

Molecule CC1(C)OC(=O)C(OCC2CC2)=C1c1ccc(S(C)(=O)=O)cc1 [firocoxib] has an AUC(0-inf) (both sexes, pig, 0.5 mg/kg) of 690 ng·h/mL, an AUC(0-t) (both sexes, pig, 0.5 mg/kg, Piglet AUClast) of 635 ng·h/mL and an AUC(0-inf) (both sexes, pig, 1 mg/kg) of 3180 ng·h/mL. The AUC(0-t) (both sexes, pig, 1 mg/kg, Piglet AUClast) was 2470 ng·h/mL, the AUC(0-inf) (both sexes, pig, 1.5 mg/kg) was 4620 ng·h/mL and the AUC(0-t) (both sexes, pig, 1.5 mg/kg, Piglet AUClast) was 3900 ng·h/mL. For the same molecule, the AUC(0-inf) (both sexes, pig, 2 mg/kg) was 3650 ng·h/mL, the AUC(0-t) (both sexes, pig, 2 mg/kg, Piglet AUClast) was 3220 ng·h/mL and the half-life (both sexes, pig, im) was 30.9 to 48.7 h. It also gave an AUC(0-inf) (both sexes, pig, im, 0.5 mg/kg) of 690 ng·h/mL, a Cmax (both sexes, pig, im, 0.5 mg/kg) of 9.53 ng/mL and a Tmax (both sexes, pig, im, 0.5 mg/kg) of 24 h. The AUC(0-t) (both sexes, pig, im, 0.5 mg/kg, AUC 0-24 h) was 176 ng·h/mL, the AUC(0-t) (both sexes, pig, im, 0.5 mg/kg, AUC0-24h) was 176 ng·h/mL and the AUC(0-t) (both sexes, pig, im, 0.5 mg/kg, AUC0-last) was 635 ng·h/mL. For the same molecule, the AUC(0-t) (both sexes, pig, im, 0.5 mg/kg, AUClast) was 635 ng·h/mL, the MRT last (both sexes, pig, im, 0.5 mg/kg, MRT0-last) was 44.8 h and the MRT last (both sexes, pig, im, 0.5 mg/kg, MRT last) was 44.8 h. For the same molecule, the AUC(0-inf) (both sexes, pig, im, 1 mg/kg) was 3180 ng·h/mL, the Cmax (both sexes, pig, im, 1 mg/kg) was 31 ng/mL and the Tmax (both sexes, pig, im, 1 mg/kg) was 24 h. The AUC(0-t) (both sexes, pig, im, 1 mg/kg, AUC 0-24 h) was 407 ng·h/mL, the AUC(0-t) (both sexes, pig, im, 1 mg/kg, AUC0-24h) was 407 ng·h/mL and the AUC(0-t) (both sexes, pig, im, 1 mg/kg, AUC0-last) was 2470 ng·h/mL. It also gave an AUC(0-t) (both sexes, pig, im, 1 mg/kg, AUClast) of 2470 ng·h/mL, an MRT last (both sexes, pig, im, 1 mg/kg, MRT0-last) of 55.4 h and an MRT last (both sexes, pig, im, 1 mg/kg, MRT last) of 55.4 h. The AUC(0-inf) (both sexes, pig, im, 1.5 mg/kg) was 4620 ng·h/mL, the Cmax (both sexes, pig, im, 1.5 mg/kg) was 53.3 ng/mL and the Tmax (both sexes, pig, im, 1.5 mg/kg) was 24 h. The AUC(0-t) (both sexes, pig, im, 1.5 mg/kg, AUC 0-24 h) was 662 ng·h/mL, the AUC(0-t) (both sexes, pig, im, 1.5 mg/kg, AUC0-24h) was 662 ng·h/mL and the AUC(0-t) (both sexes, pig, im, 1.5 mg/kg, AUC0-last) was 3900 ng·h/mL. For the same molecule, the AUC(0-t) (both sexes, pig, im, 1.5 mg/kg, AUClast) was 3900 ng·h/mL, the MRT last (both sexes, pig, im, 1.5 mg/kg, MRT0-last) was 54.4 h and the MRT last (both sexes, pig, im, 1.5 mg/kg, MRT last) was 52.4 h. It also gave an AUC(0-inf) (both sexes, pig, im, 2 mg/kg) of 3650 ng·h/mL, a Cmax (both sexes, pig, im, 2 mg/kg) of 44 ng/mL and a Tmax (both sexes, pig, im, 2 mg/kg) of 24 h. For the same molecule, the AUC(0-t) (both sexes, pig, im, 2 mg/kg, AUC 0-24 h) was 609 ng·h/mL, the AUC(0-t) (both sexes, pig, im, 2 mg/kg, AUC0-24h) was 609 ng·h/mL and the AUC(0-t) (both sexes, pig, im, 2 mg/kg, AUC0-last) was 3220 ng·h/mL. The AUC(0-t) (both sexes, pig, im, 2 mg/kg, AUClast) was 3220 ng·h/mL, the MRT last (both sexes, pig, im, 2 mg/kg, MRT0-last) was 51.5 h and the MRT last (both sexes, pig, im, 2 mg/kg, MRT last) was 51.5 h. The AUMC (pig, 0.5 mg/kg) was 28433.00 h^2 × ng/mL, the AUMClast (pig, 0.5 mg/kg) was 28,443.00 h * h * ng/mL and the AUMC (pig, 1 mg/kg) was 136805.00 h^2 × ng/mL. The AUMClast (pig, 1 mg/kg) was 136,805.00 h * h * ng/mL, the AUMC (pig, 1.5 mg/kg) was 204246.00 h^2 × ng/mL and the AUMClast (pig, 1.5 mg/kg) was 204,246.00 h * h * ng/mL. For the same molecule, the AUMC (pig, 2 mg/kg) was 166016.00 h^2 × ng/mL, the AUMClast (pig, 2 mg/kg) was 166,016.00 h * h * ng/mL and the AUCINF (pig, im, 0.5 mg/kg) was 690.47 ng·h/mL. For the same molecule, the AUC_Exp (pig, im, 0.5 mg/kg) was 0.08%, the “AUC∞ extrpl” value (pig, im, 0.5 mg/kg) was 0.08% and the AUCINF (pig, im, 1 mg/kg) was 3178.00 ng·h/mL. For the same molecule, the AUC_Exp (pig, im, 1 mg/kg) was 0.22%, the “AUC∞ extrpl” value (pig, im, 1 mg/kg) was 0.22% and the AUCINF (pig, im, 1.5 mg/kg) was 4615.17 ng·h/mL. For the same molecule, the AUC_Exp (pig, im, 1.5 mg/kg) was 0.16%, the “AUC∞ extrpl” value (pig, im, 1.5 mg/kg) was 0.16% and the AUCINF (pig, im, 2 mg/kg) was 3652.32 ng·h/mL. The AUC_Exp (pig, im, 2 mg/kg) was 0.12%, the “AUC∞ extrpl” value (pig, im, 2 mg/kg) was 0.12% and the Lamda_HL (0.5 mg/kg) was 30.86 h. For the same molecule, the Lamda_Z (0.5 mg/kg) was 0.02 h⁻¹, the λZ (0.5 mg/kg) was 0.02 h⁻¹ and the Lamda_HL (1 mg/kg) was 48.71 h. It also gave a Lamda_Z (1 mg/kg) of 0.01 h⁻¹, a λZ (1 mg/kg) of 0.01 h⁻¹ and a Lamda_HL (1.5 mg/kg) of 37.91 h. For the same molecule, the Lamda_Z (1.5 mg/kg) was 0.02 h⁻¹, the λZ (1.5 mg/kg) was 0.05 h⁻¹ and the Lamda_HL (2 mg/kg) was 32.42 h. For the same molecule, the Lamda_Z (2 mg/kg) was 0.02 h⁻¹, the λZ (2 mg/kg) was 0.02 h⁻¹ and the T1/2λZ (im, 0.5 mg/kg) was 30.86 h. For the same molecule, the T1/2λZ (im, 1 mg/kg) was 48.71 h, the T1/2λZ (im, 1.5 mg/kg) was 37.91 h and the T1/2λZ (im, 2 mg/kg) was 32.42 h.
